This note sets out measurements from patent publication US20200268753A1, “PERK AND IRE-1A INHIBITORS AGAINST NEURODEVELOPMENTAL DISORDERS” (priority 2017, published 2020).

Test [1] has as its system UPR effectors (PERK-ATF4 arm, IRE-1/Xbp1). Briefly: qRT-PCR of UPR effector expression levels in ZIKV-infected embryonic mouse brains. Type of test: in vivo. An excerpt: (§1) To test the efficacy of Salubrinal and ISRIB (PERK inhibitors) in decreasing the expression levels of UPR effectors after ZIKV infection we intracerebroventricularly injected ZIKV+Salubrinal (or ISRIB) in E12.5 mouse cortices and collected brains at E18.5. These samples were stored in Trizol (Invitrogen) and RNA was extracted according to manufacturer instructions. RNA was then retro-transcribed and cDNA was used to perform qRT-PCR to quantify ZIKV and UPR effectors levels in each sample. […] The expression levels of several PERK pathway effectors were analyzed: mATF4 (FIG. 6B), mATF5 (FIG. 6C), mCHAC1 (FIG. 6D). […] (Kruskal-Wallis test, *p<0.05, ** p<0.005).
(§2) To test the efficacy of Resveratrol (IRE1a inhibitor) in decreasing the expression levels of UPR effectors after ZIKV infection we intracerebroventricularly injected ZIKV+Resveratrol in E12.5 mouse cortices and collected brains at E18.5. These samples were stored in Trizol (Invitrogen) and RNA was extracted according to manufacturer instructions. RNA was then retro-transcribed and cDNA was used to perform qRT-PCR to quantify ZIKV and UPR effectors levels in each sample. […] The expression levels of several PERK pathway effectors were analyzed: mATF4 (FIG. 7B), mATF3 (FIG. 7C), mXbp1 spliced/unspliced and mXbp1 tot (FIG. 7D), mChop (FIG. 7E).
Total RNA was obtained from micro-dissected embryonic mouse brains, and neuronal progenitors seeded in 6 well-plate culture dishes after application of Trizol according to the manufacturer's protocol (Ambion-Life Technologies, 15596018).
The quantity and quality of RNA were assessed by NanoDrop 1000 (Nano-Drop Technologies) before cDNA synthesis by SuperScript III reverse transcriptase (Invitrogen), as used according to the manufacturer's instructions. The resulting cDNA was used for quantitative PCR, using Faststart Universal SYBR Green Master (Roche) in an Applied Biosystem 7900HT Fast Real-Time PCR detection system (Applied Biosystems, Foster city, USA). The following genes of interest (GOI) were normalized to the reference genes β-actin, Glyceraldehyde-3-Phosphate dehydrogenase (GAPDH), hypoxanthine phosphoribosyltransferase 1 (HPRT1), and 36b4 ribosomal protein (36b4). Tested genes were GAPDH, HPRT1, 36B4, ACTIN, ZIKA, Atf4, Atf3, Atf5, Chac1, Chop, Sesn2, Tbr2, Neurod6, Tubb3, hPDI, Slc7a3, MX1, TLR3, HRD1, OCT4, NESTIN, PAX6, SOX1 and mPDI.
(In general: Real-time PCR tracks product formation cycle by cycle.)

Test [2] has as its system ZIKV. Briefly: ZIKV-induced microcephaly and apoptosis after intracerebroventricular injection in mouse embryos (E12.5, analysed E18.5). The class given is in vivo. Conditions: for ZIKV-induced microcephaly / microcephalic phenotype: injected with ZIKV ICV at E12.5, E18.5 brains, vs vehicle.
The subject of test [3] is ZIKV. Briefly: qRT-PCR quantification of ZIKV copies in ICV-injected embryonic mouse brains. The class given is in vivo. Conditions: for number of ZIKV copies: ICV co-injection with ZIKV at E12.5, brains at E18.5, vs ZIKV+DMSO, Kruskal-Wallis test.
Description: as §1, §2
The number of Zika particles in the samples analyzed by qRT-PCR (see above) was calculated as previously described (Lanciotti et al, 2008). Briefly, a standard curve was created by performing serial dilutions of a plasmid containing 76-bp long sequence from the Zika genome (from nt 1,086 to 1,162; GCF_000882815.3, as indicated in Nature Neurosciences (2018) Gladwyn et al.) and querying these dilutions by qRT-PCR analysis.
This standard curve allows the conversion of Cp of samples queried for Zika virus (as described above) into N^o of Zika copies/a L. We used the following formula to link this quantification to the amount of RNA retrotranscribed for the analysis of each sample: […]
Finally, the N^o of copies/μg RNA was divided for the relative concentration of each sample analyzed by qRT-PCR (since for each analyzed gene in this study we performed a relative quantification compared to the controls of the same experiment). The relative concentration of each sample is automatically calculated by the LightCycler480 and its accompanying software.

The subject of test [4] is ZIKV. Briefly: Intraplacental (IPL) ZIKV injection in pregnant NMRI mice, cortical defects at E18.5. The class given is in vivo, mouse. Conditions: intraplacental ZIKV at E12.5, co-injection.
Test [5] has as its system ZIKV. Put plainly: Neurogenic balance after intracerebroventricular ZIKV injection and in utero GFP electroporation of mouse embryos. Conditions: co-administered with ZIKV ICV at E12.5, second injection at electroporation; E14.5; vs Mock-DMSO and Mock-PERKi. The class given is in vivo. The procedure:
To test whether the deregulation of UPR induced by ZIKV-infection results in the impairment of this neurogenic balance, we performed ICV injection of ZIKV in E12.5 mouse brains, followed by in utero electroporation of GFP-expressing plasmids one day later to fate-map APs at E14.5 (APs, immature IPs and IPs, neurons) (FIGS. 3A-B). The phenotype of the “direct progeny” of targeted APs was then assessed by immunohistochemistry (FIGS. 3B-D). In order to characterize the fate of GFP+ cells, we subdivided them into APs (Sox2+, Tbr2− or Tbr2−, Tbr1−), immature IPs (Sox2+, Tbr2+ or Tbr2+, Tbr1−), IPs (Sox2−, Tbr2+ or Tbr2+, Tbr1+), or neurons (Sox2−, Tbr2− or Tbr2−, Tbr1+).
To assess if ZIKV directly impacts the neurogenic balance through UPR deregulation in GFP labeled APs, we co-injected GSK2656157 (a PERK inhibitor, named PERKi) with ZIKV into the lateral ventricles of E12.5 embryos and repeated a second PERKi injection at the time of electroporation.
Embryonic (E) 14.5, E16.5 and E18.5 mouse brains were dissected in 0.1M phosphate-buffered saline pH7.4 (PBS), and were fixed in 4% paraformaldehyde (PFA in PBS) for one hour at room temperature, whereas human neural stem cells (hNSCs) were fixed in 4% PFA at 4° C. for 10 minutes. […]

[6] abbreviates: high doses, ICV co-injection with ZIKV at E12.5, brains at E18.5, vs ZIKV+DMSO.
Setting [7] is: ZIKV ICV at E12.5, E18.5, compared to vehicle treatment.
Setting [8] is: single injection of 50M at time of infection (E12.5), E18.5.

Each structure is given as a SMILES string.

In the case of `Cc1cc(=O)oc2c(C=O)c(O)ccc12` [4μ8C], the “activation of the PERK-ATF4 UPR arm” value in test [1] (ZIKV-infected mouse brains) is “prevented activation”. Further, the “ZIKV-induced microcephaly / microcephalic phenotype” value in the test with ZIKV [2] was “rescued the microcephalic phenotype”.

Regarding `O=C(COc1ccc(Cl)cc1)NC1CCC(NC(=O)COc2ccc(Cl)cc2)CC1` (centres unmarked) [ISRIB], in test [1] (setting [6]), the mATF4 expression level entry was “marked decrease”, the mATF5 expression level result is “marked decrease” and the mCHAC1 expression level entry is given as “marked decrease”. Further, in the test on ZIKV [3], the “number of ZIKV copies” value is given as “unaffected compared to controls”.

On to `Cc1cccc(CC(=O)N2CCc3c2ccc(-c2cn(C)c4ncnc(N)c24)c3F)n1` [PERKi], for which the “ZIKV-induced cortical defects (cortical thickness, neuronal apoptosis, cytoarchitecture)” value in the test with ZIKV [4] was “rescued”. For the same compound, the “imbalance between direct and indirect neurogenesis (proportions of APs, newborn IPs, IPs and neurons)” value in the test with ZIKV [5] was “remarkably corrected the imbalance between direct and indirect neurogenesis”. For the same compound, in the test with ZIKV [2] (setting [7]), the brain weight entry is listed as “significant improvement”; the “cortical dimensions (brain width, length)” value is “significant improvement”; the “numbers of neurons sitting in different cortical layers” value was “significant improvement”. Also, in the test on ZIKV [2], the “ZIKV-induced microcephaly / microcephalic phenotype” value is given as “reduced ZIKV-induced microcephaly”. For the same compound, in the test with ZIKV [2] (setting [8]), the ER stress entry was “decreased” and the “apoptosis (ac-caspase 3)” value is recorded as “decreased”. Moreover, the ZIKV particles entry in the test on ZIKV [3] (ZIKV-infected mouse brains treated with PERKi) was “not associated with a reduction”.

In the case of `Oc1ccc(C=Cc2cc(O)cc(O)c2)cc1` [Resveratrol], in test [1] (setting [6]), the mATF3 expression level entry is “marked decrease”, the mATF4 expression level entry is recorded as “marked decrease” and the mChop expression level result was “marked decrease”. Further, the “number of ZIKV copies” value in the test with ZIKV [3] is “unaffected compared to controls”.

With `O=C(/C=C/c1ccccc1)NC(NC(=S)Nc1cccc2cccnc12)C(Cl)(Cl)Cl` (centres unmarked) [Salubrinal], in test [1] (setting [6]), the mATF4 expression level result is on record as “marked decrease”, the mATF5 expression level entry was “marked decrease” and the mCHAC1 expression level result was “marked decrease”. In addition, in the test with ZIKV [3], the “number of ZIKV copies” value is “unaffected compared to controls”.
